Laboratory results taken from patent US20020198510A1, “Method for nasal application of a medicinal substance” (priority 2001, published 2002).
Entries after “also recorded” stand apart in the source; their conditions may differ.

Experiment: Evans Blue Dye distribution after administration into the nose of mice
Format: in vivo
Set-up: key to Dye in Stomach / Dye in Lung: -: no dye is present; traces: minimal amounts are present when examined with the unaided eye but that do not clearly show on photographs; yes: dye is clearly visible; +: dye is clearly visible; ++: heavy dye presence
Details: for Dye in Larynx / Dye in Nasal Cavity / Dye in Nose Skin / Dye in Intestine / Dye in Oral Cavity / Dye in Stomach / Dye in Esophagus Lower / Dye in Esophagus Upper / Dye in Trachea Lower / Dye in Trachea Upper / Dye in Lung: 60 min to sacrifice
Experimental: To show the distribution of liquid administered through the nose, Evans Blue Dye (0.3%) was administered through a micropipette tip into the nose of mice and chinchillas at various doses, at various levels of sedation or anesthesia, and with the animals in various positions.

[1] = Dye 10 μl single dose, Supine/Supine, anesthesia 200 μl (heavy)
[2] = Dye 10 μl single dose, Upright/Not held, 0 μl (Alert)
[3] = Dye 10 μl single dose, Upright/Not held, anesthesia 200 μl (heavy)
[4] = Dye 20 μl single dose, Supine/Supine, anesthesia 200 μl (heavy)
[5] = Dye 20 μl single dose, Upright/Not held, anesthesia 200 μl (heavy)
[6] = Dye 20 μl, 2 μl/nare at 2 min interval, Supine/Supine, anesthesia 200 μl (heavy)
[7] = Dye 20 μl, 2 μl/nare at 5 min interval, Supine/Supine, anesthesia 200 μl (heavy)
[8] = Dye 20 μl, 2 μl/nare at t = 0, 2, 7, 9 and 11 min, Supine/Supine, anesthesia 200 μl (heavy)
[9] = Dye 30 μl single dose, Prone/Not held, 0 μl (Alert)
[10] = Dye 30 μl single dose, Supine/Supine, anesthesia 200 μl (heavy)
[11] = Dye 30 μl single dose, Upright/Not held, 0 μl (Alert)
[12] = Dye 30 μl single dose, Upright/Not held, anesthesia 120 μl (Mod)
[13] = Dye 30 μl single dose, Upright/Not held, anesthesia 200 μl (heavy)
[14] = Dye 30 μl, 1 drop/5 sec interval, Upright/Not held, anesthesia 200 μl (heavy)
[15] = Dye 30 μl, 2 μl/nare at 5 min interval, Supine/Supine, anesthesia 200 μl (Mod*)
[16] = Dye 30 μl, 2 μl/nare at 5 min interval, Supine/Supine, anesthesia 200 μl (heavy)
[17] = Dye 30 μl, 2 μl/nare at 5 min interval, Supine/Supine, anesthesia 350 μl (heavy)
[18] = Dye 30 μl, 2 μl/nare at 5 min interval, Supine/Supine, anesthesia 400 μl (heavy)
[19] = Dye 30 μl, 5 μl/nare at 10 min interval, Supine/Supine, anesthesia 200 μl (heavy)
[20] = Dye 40 μl single dose, Upright/Not held, anesthesia 200 μl (heavy)
[21] = Dye 40 μl, 2 μl/nare at 5 min interval, Supine/Supine, anesthesia 200 μl (heavy)
[22] = Dye 50 μl single dose, Upright/Not held, 0 μl (Alert)
[23] = Dye 50 μl single dose, Upright/Not held, anesthesia 120 μl (Mod)
[24] = Dye 50 μl single dose, Upright/Not held, anesthesia 200 μl (heavy)
[25] = Dye 50 μl, 5 μl/nare at 30 sec interval, Upright/Not held, anesthesia 120 μl (Mod)

Cc1cc(-c2ccc(/N=N/c3ccc4c(S(=O)(=O)[O-])cc(S(=O)(=O)[O-])c(N)c4c3O)c(C)c2)ccc1/N=N/c1ccc2c(S(=O)(=O)[O-])cc(S(=O)(=O)[O-])c(N)c2c1O.[Na+].[Na+].[Na+].[Na+] [Dye, Evans Blue Dye]
Dye in the stomach (5 μl and 2 μl increments (Table 8)): reduced dye in the stomach at lower incremental doses than larger incremental doses | Dye in Larynx [1]: Yes | Dye in Nasal Cavity [1]: Yes | Dye in Nose Skin [1]: Yes | Dye in Intestine [2]: Yes | Dye in Larynx [2]: Yes | Dye in Nasal Cavity [2]: Yes | Dye in Oral Cavity [2]: Yes | Dye in Stomach [2]: + and Traces | Dye in Esophagus Lower [3]: Traces; also recorded: Yes/Yes | Dye in Esophagus Upper [3]: Traces/; also recorded: Yes/Yes | Dye in Larynx [3]: Yes | Dye in Nasal Cavity [3]: Yes | Dye in Nose Skin [3]: Yes | Dye in Oral Cavity [3]: Yes | Dye in Stomach [3]: Traces and + | Dye in Trachea Lower [3]: Traces | Dye in Trachea Upper [3]: Traces/ | Dye in Esophagus Upper [4]: Traces | Dye in Larynx [4]: Yes | Dye in Nasal Cavity [4]: Yes | Dye in Nose Skin [4]: Yes | Dye in Oral Cavity [4]: Yes | Dye in Trachea Lower [4]: Traces | Dye in Trachea Upper [4]: Traces/ | Dye in Esophagus Lower [5]: Yes/Yes | Dye in Esophagus Upper [5]: Yes/Yes | Dye in Larynx [5]: Yes | Dye in Nasal Cavity [5]: Yes | Dye in Nose Skin [5]: Yes | Dye in Oral Cavity [5]: Yes | Dye in Stomach [5]: + | Dye in Esophagus Lower [6]: Yes/Yes | Dye in Esophagus Upper [6]: Yes/Yes | Dye in Larynx [6]: Yes | Dye in Nasal Cavity [6]: Yes | Dye in Nose Skin [6]: Yes | Dye in Oral Cavity [6]: Yes | Dye in Stomach [6]: + | Dye in Esophagus Upper [7]: Yes | Dye in Larynx [7]: Yes | Dye in Nasal Cavity [7]: Yes | Dye in Nose Skin [7]: Yes | Dye in Oral Cavity [7]: Yes | Dye in Larynx [8]: Yes | Dye in Nasal Cavity [8]: Yes | Dye in Nose Skin [8]: Yes | Dye in Intestine [9]: Yes | Dye in Larynx [9]: Traces | Dye in Nasal Cavity [9]: Yes | Dye in Oral Cavity [9]: Traces | Dye in Stomach [9]: ++ and + | Dye in Esophagus Lower [10]: Yes/Yes | Dye in Esophagus Upper [10]: Yes/Yes | Dye in Larynx [10]: Yes | Dye in Nasal Cavity [10]: Yes | Dye in Nose Skin [10]: Yes | Dye in Oral Cavity [10]: Yes | Dye in Trachea Lower [10]: Yes/Yes | Dye in Trachea Upper [10]: Yes/Yes | Dye in Intestine [11]: Yes | Dye in Larynx [11]: Yes | Dye in Nasal Cavity [11]: Yes | Dye in Nose Skin [11]: Yes | Dye in Oral Cavity [11]: Yes | Dye in Stomach [11]: ++ and + | Dye in Esophagus Lower [12]: Yes/Yes | Dye in Esophagus Upper [12]: Yes/Yes | Dye in Larynx [12]: Yes | Dye in Lung [12]: Traces | Dye in Nasal Cavity [12]: Yes | Dye in Nose Skin [12]: Yes | Dye in Oral Cavity [12]: Yes | Dye in Stomach [12]: ++ and + | Dye in Trachea Lower [12]: Yes/Yes | Dye in Trachea Upper [12]: Yes/Yes | Dye in Esophagus Lower [13]: Yes/Yes | Dye in Esophagus Upper [13]: Yes/Yes | Dye in Larynx [13]: Yes | Dye in Lung [13]: + | Dye in Nasal Cavity [13]: Yes | Dye in Nose Skin [13]: Yes | Dye in Oral Cavity [13]: Yes | Dye in Trachea Lower [13]: Yes/Yes | Dye in Trachea Upper [13]: Yes/Yes | Dye in Esophagus Lower [14]: Yes/Yes | Dye in Esophagus Upper [14]: Yes/Yes | Dye in Larynx [14]: Yes | Dye in Nasal Cavity [14]: Yes | Dye in Nose Skin [14]: Yes | Dye in Oral Cavity [14]: Yes | Dye in Stomach [14]: + | Dye in Esophagus Lower [15]: Yes/Yes | Dye in Esophagus Upper [15]: Yes/Yes | Dye in Larynx [15]: Yes | Dye in Nasal Cavity [15]: Yes | Dye in Nose Skin [15]: Yes | Dye in Oral Cavity [15]: Yes | Dye in Stomach [15]: + | Dye in Esophagus Upper [16]: Traces | Dye in Larynx [16]: Yes | Dye in Nasal Cavity [16]: Yes | Dye in Nose Skin [16]: Yes | Dye in Oral Cavity [16]: Yes | Dye in Esophagus Upper [17]: Traces | Dye in Larynx [17]: Yes | Dye in Nasal Cavity [17]: Yes | Dye in Nose Skin [17]: Yes | Dye in Oral Cavity [17]: Yes | Dye in Trachea Upper [17]: Traces | Dye in Larynx [18]: Yes | Dye in Nasal Cavity [18]: Yes | Dye in Nose Skin [18]: Yes | Dye in Oral Cavity [18]: Yes | Dye in Esophagus Lower [19]: Yes/Yes | Dye in Esophagus Upper [19]: Yes/Yes | Dye in Larynx [19]: Yes | Dye in Lung [19]: + and Traces | Dye in Nasal Cavity [19]: Yes | Dye in Nose Skin [19]: Yes | Dye in Stomach [19]: + | Dye in Trachea Lower [19]: Yes/Yes | Dye in Trachea Upper [19]: Yes/Yes | Dye in Esophagus Lower [20]: Yes/Yes | Dye in Esophagus Upper [20]: Yes/Yes | Dye in Intestine [20]: Yes | Dye in Larynx [20]: Yes | Dye in Lung [20]: + | Dye in Nasal Cavity [20]: Yes | Dye in Nose Skin [20]: Yes | Dye in Oral Cavity [20]: Yes | Dye in Stomach [20]: + | Dye in Trachea Lower [20]: Yes/Yes | Dye in Trachea Upper [20]: Yes/Yes | Dye in Esophagus Lower [21]: Yes/Yes | Dye in Esophagus Upper [21]: Yes/Yes | Dye in Larynx [21]: Yes | Dye in Nasal Cavity [21]: Yes | Dye in Nose Skin [21]: Yes | Dye in Oral Cavity [21]: Yes | Dye in Stomach [21]: ++ | Dye in Esophagus Lower [22]: Traces | Dye in Esophagus Upper [22]: Traces/ | Dye in Intestine [22]: Yes | Dye in Larynx [22]: Yes | Dye in Nasal Cavity [22]: Yes | Dye in Nose Skin [22]: Yes | Dye in Oral Cavity [22]: Yes | Dye in Stomach [22]: ++ and + | Dye in Esophagus Lower [23]: Yes/Yes | Dye in Esophagus Upper [23]: Yes/Yes | Dye in Larynx [23]: Yes | Dye in Nasal Cavity [23]: Yes | Dye in Nose Skin [23]: Yes | Dye in Oral Cavity [23]: Yes | Dye in Stomach [23]: ++ | Dye in Trachea Lower [23]: Yes/Yes; also recorded: Traces | Dye in Trachea Upper [23]: Yes/Yes and Yes/ | Dye in Esophagus Lower [24]: Yes/Yes | Dye in Esophagus Upper [24]: Yes/Yes | Dye in Larynx [24]: Yes | Dye in Lung [24]: + and ++ | Dye in Nasal Cavity [24]: Yes | Dye in Nose Skin [24]: Yes | Dye in Oral Cavity [24]: Yes | Dye in Stomach [24]: + | Dye in Trachea Lower [24]: Yes/Yes | Dye in Trachea Upper [24]: Yes/Yes | Dye in Esophagus Lower [25]: Yes/Yes | Dye in Esophagus Upper [25]: Yes/Yes | Dye in Larynx [25]: Yes | Dye in Nasal Cavity [25]: Yes | Dye in Nose Skin [25]: Yes | Dye in Oral Cavity [25]: Yes | Dye in Stomach [25]: + | Dye retention in nasal passages and sinuses by position (mice, prone versus supine position): the converse is true for mice | Dye retention in nasal passages and sinuses by alertness (mouse, alert versus anesthetized): an anesthetized state is preferred | Dye reaching stomach and esophagus (optimal divided dose conditions for the mouse (Table 9)): essentially no dye reached the stomach and very little dye reached the esophagus | Dye retention in nasal passages and sinus cavities (series of low doses versus a single larger dose): more material can be retained in the nasal passages and sinus cavities than when a single larger dose is used | Dye retention in nasal passages and sinuses versus loss (when a lower dose is used): more dye is retained in the nasal passages and sinuses and less dye is lost to the esophagus, stomach, intestines and lungs
